# Test results reported in patent publication EP4389111A1, “METHOD OF PREPARATION OF C[…] […] AND C[…] […]” (Aero-Bw K. Domagala Sp. Jawna, priority 2022, dated 2024).
# Values joined by “and” are separate entries in the source; they are usually repeats but may differ in a detail not shown here. Identical values can stand only once.
# System: Salmonella typhimurium TA98
# Experiment: Ames test, strain TA98 (reading frame shift)
# Type: cell-based
# Conditions: positive control at 2 µg/mL
smiles,measurement,value
"O=[N+]([O-])c1ccc2c(c1)Cc1ccccc1-2 [Extract 2-NF, 2-nitrofluorene]",MOI (Multiplicity of induction compared to baseline),6.9 and 5.6
